Assay results reported in patent publication US9102678B2, “Compounds and methods for inhibiting mitotic progression” (Millennium Pharmaceuticals, Inc., priority 2004, dated 2015).

biological target: T1, recombinant murine Aurora A enzyme (Mus musculus, UniProt P97477); test: Aurora A DELFIA Kinase Assay; type: biochemical; conditions: mouse Aurora A, 250 μM ATP; threshold less than or equal to 100 nM; read-out: IC50
T1 construct: hexahistidine (His6) (N); made in house; host or cells: insect cells, baculovirus (Bac-to-Bac, Invitrogen)
T1 sequence (P97477 whole entry): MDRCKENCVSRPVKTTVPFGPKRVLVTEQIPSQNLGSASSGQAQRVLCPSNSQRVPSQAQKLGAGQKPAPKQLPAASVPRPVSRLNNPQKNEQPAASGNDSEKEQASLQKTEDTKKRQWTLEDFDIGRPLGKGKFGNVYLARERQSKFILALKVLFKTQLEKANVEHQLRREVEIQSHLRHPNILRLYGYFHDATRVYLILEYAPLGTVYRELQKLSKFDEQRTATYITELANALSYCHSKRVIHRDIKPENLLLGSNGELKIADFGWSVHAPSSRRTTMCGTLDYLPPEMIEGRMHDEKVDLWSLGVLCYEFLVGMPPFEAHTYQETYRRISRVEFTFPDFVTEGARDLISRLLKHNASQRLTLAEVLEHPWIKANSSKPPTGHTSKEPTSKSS

Row | Structure (SMILES) | IC50 [nM]
1 | CNC1CN(C(=O)c2ccc(Nc3ncc4c(n3)-c3ccc(Cl)cc3C(c3c(F)cccc3Cl)=NC4)cc2)C1 [Compound I-351, 9-chloro-7-(2-chloro-6-fluorophenyl)-N-(4-{[3-(methylamino)azetidin-1-yl]carbonyl}phenyl)-5H-pyrimido[5,4-d][2]benzazepin-2-amine] | ≤ 100
2 | O=C(O)c1ccc(Nc2ncc3c(n2)-c2ccc(F)cc2C(c2ccccc2F)=NC3)cc1 [Compound I-57, 4-[9-Fluoro-7-(2-fluoro-phenyl)-5H-benzo[c]pyrimido[4,5-e]azepin-2-ylamino]-benzoic acid] | ≤ 100
3 | COc1cccc(F)c1C1=NCc2cnc(Nc3cccc(C(=O)N(C)CCCN(C)C)c3)nc2-c2ccc(Cl)cc21 [Compound I-226, 3-{[9-chloro-7-(2-fluoro-6-methoxyphenyl)-5H-pyrimido[5,4-d][2]benzazepin-2-yl]amino}-N-[3-(dimethylamino)propyl]-N-methylbenzamide] | ≤ 100
4 | COC(=O)C1CN(C(=O)c2ccc(Nc3ncc4c(n3)-c3ccc(Cl)cc3C(c3c(F)cccc3F)=NC4)cc2)CCN1 (centres unmarked) [Compound I-248, methyl 4-(4-{[9-chloro-7-(2,6-difluorophenyl)-5H-pyrimido[5,4-d][2]benzazepin-2-yl]amino}benzoyl)piperazine-2-carboxylate] | ≤ 100
5 | CNC1CN(C(=O)c2cc(Nc3ncc4c(n3)-c3ccc(Cl)cc3C(c3c(F)cccc3F)=NC4)ccc2Cl)C1 [Compound I-291, 9-chloro-N-(4-chloro-3-{[3-(methylamino)azetidin-1-yl]carbonyl}phenyl)-7-(2,6-difluorophenyl)-5H-pyrimido[5,4-d][2]benzazepin-2-amine] | ≤ 100
6 | CC1CN(C(=O)c2ccc(Nc3ncc4c(n3)-c3ccc(Cl)cc3C(c3c(F)cccc3Cl)=NC4)cc2)CCN1 (centres unmarked) [Compound I-323, 9-chloro-7-(2-chloro-6-fluorophenyl)-N-{4-[(3-methylpiperazin-1-yl)carbonyl]phenyl}-5H-pyrimido[5,4-d][2]benzazepin-2-amine] | ≤ 100
7 | CNCCCN(C)C(=O)c1ccc(Nc2ncc3c(n2)-c2ccc(Cl)cc2C(c2c(F)cccc2OC)=NC3)cc1 [Compound I-261, 4-{[9-chloro-7-(2-fluoro-6-methoxyphenyl)-5H-pyrimido[5,4-d][2]benzazepin-2-yl]amino}-N-methyl-N-[3-(methylamino)propyl]benzamide] | ≤ 100
8 | CNC1CCN(C(=O)c2ccc(Nc3ncc4c(n3)-c3ccc(Cl)cc3C(c3ccccc3C(F)(F)F)=NC4)cc2)C1 (centres unmarked) [Compound I-290, 9-chloro-N-(4-{[3-(methylamino)pyrrolidin-1-yl]carbonyl}phenyl)-7-[2-(trifluoromethyl)phenyl]-5H-pyrimido[5,4-d][2]benzazepin-2-amine] | ≤ 100
9 | CC1CN(C(=O)c2coc(Nc3ncc4c(n3)-c3ccc(Cl)cc3C(c3c(F)cccc3F)=NC4)n2)CC(C)N1 (centres unmarked) [Compound I-374, 9-chloro-7-(2,6-difluorophenyl)-N-[4-[(3,5-dimethylpiperazin-1-yl)carbonyl]-1,3-oxazol-2-yl]-5H-pyrimido[5,4-d][2]benzazepin-2-amine] | ≤ 100
10 | CN(C)C1CCN(C(=O)c2cc(Nc3ncc4c(n3)-c3ccc(Cl)cc3C(c3c(F)cccc3F)=NC4)ccc2Cl)CC1 [Compound I-269, 9-chloro-N-(4-chloro-3-{[4-(dimethylamino)piperidin-1-yl]carbonyl}phenyl)-7-(2,6-difluorophenyl)-5H-pyrimido[5,4-d][2]benzazepin-2-amine] | ≤ 100
11 | CC1CN(C(=O)c2ccc(Nc3ncc4c(n3)-c3ccc(Cl)cc3C(c3c(F)cccc3F)=NC4)cc2Cl)CCN1 (centres unmarked) [Compound I-216, 9-chloro-N-{3-chloro-4-[(3-methylpiperazin-1-yl)carbonyl]phenyl}-7-(2,6-difluorophenyl)-5H-pyrimido[5,4-d][2]benzazepin-2-amine] | ≤ 100
12 | CNC1CCN(C(=O)c2ccc(Nc3ncc4c(n3)-c3ccc(Cl)cc3C(c3c(F)cccc3OC)=NC4)cc2)C1 (centres unmarked) [Compound I-199, {4-[9-Chloro-7-(2-fluoro-6-methoxy-phenyl)-5H-benzo[c]pyrimido[4,5-e]azepin-2-ylamino]-phenyl}-(3-methylamino-pyrrolidin-1-yl)-methanone] | ≤ 100
13 | COC(=O)C1(N)CCN(C(=O)c2ccc(Nc3ncc4c(n3)-c3ccc(Cl)cc3C(c3c(F)cccc3F)=NC4)cc2)CC1 [Compound I-294, methyl 4-amino-1-(4-{[9-chloro-7-(2,6-difluorophenyl)-5H-pyrimido[5,4-d][2]benzazepin-2-yl]amino}benzoyl)piperidine-4-carboxylate] | ≤ 100
14 | O=C(NCCN1CCOCC1)c1ccc(Nc2ncc3c(n2)-c2ccc(Cl)cc2C(c2ccccc2Cl)=NC3)cc1 [Compound I-30, 4-[9-Chloro-7-(2-chloro-phenyl)-5H-benzo[c]pyrimido[4,5-e]azepin-2-ylamino]-N-(2-morpholin-4-yl-ethyl)-benzamide] | ≤ 100
15 | CC1(C)CN=C(c2ccc(Nc3ncc4c(n3)-c3ccc(Cl)cc3C(c3c(F)cccc3F)=NC4)cc2)N1 [Compound I-270, 9-chloro-7-(2,6-difluorophenyl)-N-[4-(5,5-dimethyl-4,5-dihydro-1H-imidazol-2-yl)phenyl]-5H-pyrimido[5,4-d][2]benzazepin-2-amine] | ≤ 100
16 | NCC#Cc1ccc2c(c1)C(c1c(F)cccc1F)=NCc1cnc(Nc3ccc(C(=O)O)cc3)nc1-2 [Compound I-272, 4-{[9-(3-aminoprop-1-yn-1-yl)-7-(2,6-difluorophenyl)-5H-pyrimido[5,4-d][2]benzazepin-2-yl]amino}benzoic acid] | ≤ 100
17 | CNC(=O)c1ccc(Nc2ncc3c(n2)-c2ccc(Cl)cc2C(c2c(F)cccc2F)=NC3)cc1 [Compound I-334, 4-{[9-chloro-7-(2,6-difluorophenyl)-5H-pyrimido[5,4-d][2]benzazepin-2-yl]amino}-N-methylbenzamide] | ≤ 100
18 | O=C(c1ccc(Nc2ncc3c(n2)-c2ccc(Cl)cc2C(c2ccccc2F)=NC3)cc1)N1CCN(CCCN2CCCCC2)CC1 [Compound I-181, {4-[9-Chloro-7-(2-fluoro-phenyl)-5H-benzo[c]pyrimido[4,5-e]azepin-2-ylamino]-phenyl}-[4-(3-piperidin-1-yl-propyl)-piperazin-1-yl]-methanone] | ≤ 100
19 | NC1CCN(C(=O)c2ccc(Nc3ncc4c(n3)-c3ccc(Cl)cc3C(c3ccccn3)=NC4)cc2)C1 (centres unmarked) [Compound I-299, N-{4-[(3-aminopyrrolidin-1-yl)carbonyl]phenyl}-9-chloro-7-pyridin-2-yl-5H-pyrimido[5,4-d][2]benzazepin-2-amine] | ≤ 100

The remaining lines, values ahead:

Row | IC50 [nM] | Structure (SMILES)
20 | ≤ 100 | CN1CCCC(CN2CCN(C(=O)c3ccc(Nc4ncc5c(n4)-c4ccc(Cl)cc4C(c4ccccc4F)=NC5)cc3)CC2)C1 (centres unmarked) [Compound I-211, 9-chloro-7-(2-fluorophenyl)-N-[4-({4-[(1-methylpiperidin-3-yl)methyl]piperazin-1-yl}carbonyl)phenyl]-5H-pyrimido[5,4-d][2]benzazepin-2-amine]
21 | ≤ 100 | O=C(c1ccc(Nc2ncc3c(n2)-c2ccc(Cl)cc2C(c2ccccc2F)=NC3)cc1)N1CCN(CCCN2CCCC2)CC1 [Compound I-188, {4-[9-Chloro-7-(2-fluoro-phenyl)-5H-benzo[c]pyrimido[4,5-e]azepin-2-ylamino]-phenyl}-[4-(3-pyrrolidin-1-yl-propyl)-piperazin-1-yl]-methanone]
22 | ≤ 100 | CNC1CCN(C(=O)c2ccc(Nc3ncc4c(n3)-c3ccc(Cl)cc3C(c3ccccc3C(F)(F)F)=NC4)cc2)CC1 [Compound I-288, 9-chloro-N-(4-{[4-(methylamino)piperidin-1-yl]carbonyl}phenyl)-7-[2-(trifluoromethyl)phenyl]-5H-pyrimido[5,4-d][2]benzazepin-2-amine]
23 | ≤ 100 | COc1ccccc1C1=NCc2cnc(Nc3ccc(C(=O)N4CCN(C)CC4)cc3)nc2-c2ccc(Cl)cc21 [Compound I-12, {4-[9-Chloro-7-(2-methoxy-phenyl)-5H-benzo[c]pyrimido[4,5-e]azepin-2-ylamino]-phenyl}-(4-methyl-piperazin-1-yl)-methanone]
24 | ≤ 100 | COc1cccc(F)c1C1=NCc2cnc(Nc3ccc(C(=O)N4CCC(N(C)C)CC4)cc3)nc2-c2ccc(Cl)cc21 [Compound I-186, {4-[9-Chloro-7-(2-fluoro-6-methoxy-phenyl)-5H-benzo[c]pyrimido-[4,5-e]azepin-2-ylamino]-phenyl}-(4-dimethylamino-piperidin-1-yl)-methanone]
25 | ≤ 100 | CNC1CCN(C(=O)c2ccc(Nc3ncc4c(n3)-c3ccc(Cl)cc3C(c3ccccc3OC)=NC4)cc2)C1 (centres unmarked) [Compound I-332, 9-chloro-7-(2-methoxyphenyl)-N-(4-{[3-(methylamino)pyrrolidin-1-yl]carbonyl}phenyl)-5H-pyrimido[5,4-d][2]benzazepin-2-amine]
26 | ≤ 100 | COc1ccccc1C1=NCc2cnc(Nc3ccc(C(=O)O)cc3)nc2-c2ccc(Cl)cc21 [Compound I-55, 4-[9-Chloro-7-(2-methoxy-phenyl)-5H-benzo[c]pyrimido[4,5-e]azepin-2-ylamino]-benzoic acid]
27 | ≤ 100 | CCN(CC)CCN1CCN(C(=O)c2ccc(Nc3ncc4c(n3)-c3ccc(Cl)cc3C(c3ccccc3F)=NC4)cc2)CC1 [Compound I-209, 9-chloro-N-[4-({4-[2-(diethylamino)ethyl]piperazin-1-yl}carbonyl)phenyl]-7-(2-fluorophenyl)-5H-pyrimido[5,4-d][2]benzazepin-2-amine]
28 | ≤ 100 | CN(C)C1CCN(C(=O)c2ccc(Nc3ncc4c(n3)-c3ccc(Cl)cc3C(c3ccccc3F)=NC4)cc2)CC1 [Compound I-18, {4-[9-Chloro-7-(2-fluoro-phenyl)-5H-benzo[c]pyrimido[4,5-e]azepin-2-ylamino]-phenyl}-(4-dimethylamino-piperidin-1-yl)-methanone]
29 | ≤ 100 | CNC1CCN(C(=O)c2ccc(Nc3ncc4c(n3)-c3ccc(Cl)cc3C(c3c(F)cccc3OC)=NC4)cc2)CC1 [Compound I-242, 9-chloro-7-(2-fluoro-6-methoxyphenyl)-N-(4-{[4-(methylamino)piperidin-1-yl]carbonyl}phenyl)-5H-pyrimido[5,4-d][2]benzazepin-2-amine]
